Laboratory results from patent US10179775B2, “Cyclooctenes for bioorthogonol reactions” (The General Hospital Corporation, priority 2014, dated 2019).
Entries after “also recorded” stand apart in the source; their conditions may differ.

What was measured:
Assay type in all cases: physicochemical
[1] = Tetrazine kinetics with cyclooctenes (stopped-flow spectrophotometry); settings: for k2 second rate constant / second order rate constant k2: reaction with benzylamino tetrazine in PBS at 37° C.
Experimental: Kinetic measurements were performed with benzylamino tetrazine and excessive amounts of cyclooctenes, using an Applied Photophysics Stopped-Flow spectrophotometer. Stock solutions of reactants in DMSO were diluted in PBS pH 7.4 to a final concentration of 1 vol % DMSO. Solutions of these reactants were loaded into the individual chambers of the instrument and equilibrated to 37° C. for 10 min. The concentration of benzylamino tetrazine after the samples were mixed by the spectrometer in a 1:1 v/v ratio was 50, 75 or 150 μM depending on the cyclooctene used. The decrease of the benzylamino tetrazine absorbance measured at 515 nm was monitored at regular intervals between 0.075 s and 10 s depending on the cyclooctene used. For trials shorter than […] (TCO-OH, OX-TCO and 3PEGMe-TCO) 1000 data points were collected and for trials longer than 1 s (EG-TCO and DO-TCO) 10000 data points were collected.
The kobs, (s^−1) values were calculated using the Prism 6 software package and the results of 6 runs were averaged for each cyclooctene concentration. […] The average kobs, values were then plotted against the concentration of cyclooctenes to yield the second order rate constant k2=(dm^3 mol^−1 s^−1) from the slope of the line with the error from the standard deviation in the slope calculated in Prism 6.

[2] = Chemical stability in the presence of mercaptoethanol by 1H NMR; parameters: Icis / Itrans: unit not given here; settings: for chemical stability / isomerization, result in words: 48 mM mercaptoethanol, 20 mM cyclooctene (s-TCO 10 mM), D2O:DMSO-d6 10:1 v/v, 0-25 h; for chemical stability / isomerization, result in words / Icis / Itrans / Itrans/(Icis + Itrans): 37° C.; for chemical stability (change by NMR) after 16 hours / Icis / Itrans / Itrans/(Icis + Itrans): mercaptoethanol; for chemical stability (change by NMR) after 16 hours: D2O:DMSO-d6 10:1 v/v at 37° C.
Experimental: (§1) The chemical stability of the compounds of Examples 1-3 was also investigated in the presence of thiols (cysteine and mercaptoethanol) by NMR in D2O:DMSO-d6 10:1 v/v at 37° C.
(§2) The solutions were prepared by the dilution of a stock solution prepared in DMSO-d6. An end concentration of 20 mM of the cyclooctenes was used except for the s-TCO, which was used in 10 mM end concentration due to poorer solubility. A 20 mM solution could not be prepared by dilution with D2O from DMSO-d6 stock solution without the precipitation of s-TCO. Nucleophiles mercaptoethanol and cysteine were used in 48 mM end concentration. Cysteine precipitated very soon from the solution. In all cases reactions were followed by ^1H NMR.
Measurements were taken in the following intervals: mercaptoethanol: 0 h, 2 h, 11 h, 17 h and 25 h; cysteine: 0 h, 6 h and 14 h; s-TCO without nucleophile at room temperature: 1 h, 7 h and 14 h. […]

[3] = Chemical stability in the presence of cysteine by 1H NMR; settings: 37° C.; for chemical stability / isomerization, result in words: 48 mM cysteine, 20 mM cyclooctene (s-TCO 10 mM), D2O:DMSO-d6 10:1 v/v, 0-14 h; for trans-isomer still present after 6 hours / Icis / Itrans: cysteine
Experimental: as §1, §2
(§3) Measurements were taken in the following intervals: mercaptoethanol: 0 h, 2 h, 11 h, 17 h and 25 h; cysteine: 0 h, 6 h and 14 h; s-TCO without nucleophile at room temperature: 1 h, 7 h and 14 h.
(§4) In each case the ratio of the integrals of the cis-double bond to the sum of the integrals of the cis- and trans-double bonds was calculate.

[4] = Spontaneous isomerization in D2O or D2O:DMSO-d6 without nucleophile by 1H NMR; settings: for isomerization or degradation on storage in D2O, result in words: stored in D2O, 1H NMR
Experimental: Bulk samples of the compounds described above in Examples 1-3 were stored at −20° C. for six months. […] The spontaneous isomerization took almost 5 days at 37° C. and more than 12 days at room temperature. […] With 22, a similar degree of isomerization was observed only after 63 hours at room temperature in D2O.
as §3, §4

[5] = Chemical stability in the presence of cysteine by 1H NMR; settings: for chemical stability (change by NMR) after 16 hours: D2O:DMSO-d6 10:1 v/v at 37° C.; for Itrans/(Icis + Itrans): 37° C.
[6] = Solubility in DMSO/water (D2O) mixtures; settings: dilution with D2O from DMSO-d6 stock solution (D2O:DMSO-d6 10:1)
Experimental: as §2
The conjugates were tested in imaging experiments (FIG. 1). An advantage of the new trans cyclooctene derivatives lies in their improved solubility in DMSO/water mixtures. Bioorthogonal imaging experiments of PARP protein in HT1080 cells (expressing PARP1 fused to mCherry) were successful with all three new compounds, (FIG. 1). The imaging experiments were performed by treating HT1080 cells (expressing PARP1 fused to mCherry) with 5 μM compound 45 (a-d), 46 (e-h) and 47 (i-l) for 30 minutes. After washing with growth media three times for 5 minutes each, cells were incubated for 30 minutes with 1 μM of CFDA-Tz for bio-orthogonal reaction inside the live cells. Following fixation, 40× images were collected by deconvolution microscopy a, e, i) bright field images; b, f, j) Olaparib-TCO/Tz-CFDA staining; c, g, k) PARP1-mCherry, d, h, l) merged images (see FIG. 1). […]

[7] = Spontaneous isomerization in D2O or D2O:DMSO-d6 without nucleophile by 1H NMR; settings: D2O:DMSO-d6 (10:1 v/v), room temperature, no nucleophile
[8] = D2O:DMSO-d6 (10:1 v/v), room temperature, no nucleophile, t 1 h
[9] = D2O:DMSO-d6 (10:1 v/v), room temperature, no nucleophile, t 7 h
[10] = D2O:DMSO-d6 (10:1 v/v), room temperature, no nucleophile, t 14 h

O=C1OC2CC/C=C/CCC2N1CCOCCO (centres unmarked) [OX-TCO, (E)-3-(2-(2-hydroxyethoxy)ethyl)-3,3a,4,5,9,9a-hexahydrocycloocta[d]oxazol-2(8H)-one]
weighted average second order rate constant k2 ([1]; 4:1 isomer mixture, benzylamino tetrazine in PBS at 37° C.): 29242±636 dm^3 mol^−1 s^−1
k2 second rate constant [1]: 29242 ± 636 dm^3 · mol^−1 · s^−1
chemical stability / isomerization, result in words [2]: did not show any change; also recorded: relatively stable
chemical stability (change by NMR) after 16 hours [2]: did not show any change
chemical stability / isomerization, result in words [3]: did not show any change; also recorded: relatively stable
isomerization or degradation on storage in D2O, result in words [4]: no isomerization or degradation
chemical stability (change by NMR) after 16 hours [5]: did not show any change

OCCOC1/C=C/CCCCC1 (centres unmarked) [EG-TCO, (E)-2-(cyclooct-2-en-1-yloxy)ethanol]
k2 second rate constant [1]: 600 ± 6 dm^3 · mol^−1 · s^−1
second order rate constant k2 [1]: 600±6 dm^3 mol^−1 s^−1
chemical stability / isomerization, result in words [2]: did not show any change; also recorded: relatively stable
chemical stability (change by NMR) after 16 hours [2]: did not show any change
chemical stability / isomerization, result in words [3]: did not show any change; also recorded: relatively stable
chemical stability (change by NMR) after 16 hours [5]: did not show any change

COCCOCCOCCOC1CC/C=C/CCC1O (centres unmarked) [3PEGMe-TCO, (E)-8-(2-(2-(2-methoxyethoxy)ethoxy)ethoxy)cyclooct-4-enol]
Icis ([2]; t 0 h): 0.17
Itrans ([2]; t 0 h): 2
Itrans/(Icis + Itrans) ([2]; t 0 h): 0.922
Icis ([2]; t 2 h): 0.48
Itrans ([2]; t 2 h): 2
Itrans/(Icis + Itrans) ([2]; t 2 h): 0.807
Icis ([2]; t 11 h): 0.66
Itrans ([2]; t 11 h): 2
Itrans/(Icis + Itrans) ([2]; t 11 h): 0.752
Icis ([2]; t 17 h): 0.69
Itrans ([2]; t 17 h): 2
Itrans/(Icis + Itrans) ([2]; t 17 h): 0.744
Icis ([2]; t 25 h): 0.74
Itrans ([2]; t 25 h): 2
Itrans/(Icis + Itrans) ([2]; t 25 h): 0.730
chemical stability / isomerization, result in words [3]: did not show any degradation; also recorded: relatively stable
isomerization or degradation on storage in D2O, result in words [4]: no isomerization or degradation

OCCOC1/C=C/COCOC1 (centres unmarked) [DO-TCO, (E)-2-((5,8-dihydro-4H-1,3-dioxocin-5-yl)oxy)ethanol]
k2 second rate constant [1]: 332 ± 3 dm^3 · mol^−1 · s^−1
second order rate constant k2 [1]: 332±3 dm^3 mol^−1 s^−1
Icis ([2]; t 0 h): 0
Itrans ([2]; t 0 h): 2
Itrans/(Icis + Itrans) ([2]; t 0 h): 1
Icis ([2]; t 2 h): 0.18
Itrans ([2]; t 2 h): 2
Itrans/(Icis + Itrans) ([2]; t 2 h): 0.917
Icis ([2]; t 11 h): 0.38
Itrans ([2]; t 11 h): 2
Itrans/(Icis + Itrans) ([2]; t 11 h): 0.840
Icis ([2]; t 17 h): 0.42
Itrans ([2]; t 17 h): 2
Itrans/(Icis + Itrans) ([2]; t 17 h): 0.826
Icis ([2]; t 25 h): 0.79
Itrans ([2]; t 25 h): 2
Itrans/(Icis + Itrans) ([2]; t 25 h): 0.717
chemical stability / isomerization, result in words [3]: isomerization of the trans isomer to the cis isomer; also recorded: isomerization of the trans-isomer to the cis-isomer; also recorded: undergo isomerization/decomposition; also recorded: much faster than that of s-TCO
trans-isomer still present after 6 hours [3]: no trans-compound was present
Icis ([3]; t 0 h): 0
Itrans ([3]; t 0 h): 2
Icis ([3]; t 6 h): 2
Itrans ([3]; t 6 h): 0
Icis ([3]; t 14 h): 2
Itrans ([3]; t 14 h): 0
time the spontaneous isomerization to the cis isomer took ([4]; D2O, 37° C.): ~5 days
time after which a similar degree of isomerization (at least 5%) was observed ([4]; D2O, room temperature): 63 h
time the spontaneous isomerization to the cis isomer took ([4]; D2O, room temperature): more than 12 days
isomerization or degradation on storage in D2O, result in words [4]: slow isomerization to the cis isomer
Itrans/(Icis + Itrans) ([5]; t 0 h): 1
Itrans/(Icis + Itrans) ([5]; t 6 h): 0
Itrans/(Icis + Itrans) ([5]; t 14 h): 0

OCC1C2CCC=CCCC12 (centres unmarked) [s-TCO, reference compound]
chemical stability / isomerization, result in words [2]: isomerization of the trans isomer to the cis isomer; also recorded: occurred together with unidentified side reactions; also recorded: undergo isomerization/decomposition; also recorded: most of the s-TCO disappeared within the first two hours
Icis ([2]; t 0 h): 1.19
Itrans ([2]; t 0 h): 2
Itrans/(Icis + Itrans) ([2]; t 0 h): 0.627
Icis ([2]; t 2 h): 87
Itrans ([2]; t 2 h): 2
Itrans/(Icis + Itrans) ([2]; t 2 h): 0.023
Icis ([2]; t 11 h): 2
Itrans ([2]; t 11 h): 0
Itrans/(Icis + Itrans) ([2]; t 11 h): 0
Icis ([2]; t 17 h): 2
Itrans ([2]; t 17 h): 0
Itrans/(Icis + Itrans) ([2]; t 17 h): 0
Icis ([2]; t 25 h): 2
Itrans ([2]; t 25 h): 0
Itrans/(Icis + Itrans) ([2]; t 25 h): 0
chemical stability / isomerization, result in words [3]: isomerization of the trans isomer to the cis isomer; also recorded: isomerization of the trans-isomer to the cis-isomer; also recorded: undergo isomerization/decomposition
trans-isomer still present after 6 hours [3]: 65%
Icis ([3]; t 0 h): 0.19
Itrans ([3]; t 0 h): 2
Icis ([3]; t 6 h): 1.07
Itrans ([3]; t 6 h): 2
Icis ([3]; t 14 h): 8.42
Itrans ([3]; t 14 h): 2
isomerization after 14 hours ([4]; D2O:DMSO-d6 10:1, room temperature, 14 hours): at least 5%
Itrans/(Icis + Itrans) ([4]; D2O:DMSO-d6 (10:1 v/v), room temperature, no nucleophile, t 0 h): 1
Icis [4, 8]: 0.03
Itrans [4, 8]: 2
Icis [4, 9]: 0.06
Itrans [4, 9]: 2
Icis [4, 10]: 0.1
Itrans [4, 10]: 2
concentration preparable without precipitation [6]: < 20000 µM
Itrans/(Icis + Itrans) ([5]; t 0 h): 0.913
Itrans/(Icis + Itrans) ([5]; t 6 h): 0.652
Itrans/(Icis + Itrans) ([5]; t 14 h): 0.192
Icis ([7]; t 0 h): 0
Itrans ([7]; t 0 h): 2
Itrans/(Icis + Itrans) ([7]; t 1 h): 0.985
Itrans/(Icis + Itrans) ([7]; t 7 h): 0.971
Itrans/(Icis + Itrans) ([7]; t 14 h): 0.952

OC1CC/C=C/CCC1 (stereo not drawn) [TCO-OH, trans-cyclooctenol, reference compound]
k2 second rate constant [1]: 33585 ± 326 dm^3 · mol^−1 · s^−1
chemical stability / isomerization, result in words [2]: did not show any change; also recorded: relatively stable
chemical stability / isomerization, result in words ([2]; listed as TCO): isomerized very fast
chemical stability (change by NMR) after 16 hours [2]: did not show any change
chemical stability / isomerization, result in words [3]: did not show any change; also recorded: relatively stable
isomerization or degradation on storage in D2O, result in words [4]: no isomerization or degradation
chemical stability (change by NMR) after 16 hours [5]: did not show any change
